{"source": "patent US5391540A", "about": "“Substituted pyridine compounds” (Rohm and Haas Company, priority 1993, dated 1995)", "format_in_all_cases": "in vivo", "key": {"Velvetleaf": {"test_system": "Velvetleaf", "test": "Pre-emergent herbicidal activity (Table A)", "conditions": "Abutilon theophrasti, pre-emergence, Vele, 11.2 kg/ha, 10-14 days, read-out: herbicidal rating (% inhibition)", "outline": "(§1)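 Percent inhibition per species, scored on a rating scale, after pre-emergent soil incorporation: test compound in acetone or water carrier mixed into cover soil, layered over seeded topsoil or vegetative propagules.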"}, "Yellow Nutsedge": {"test_system": "Yellow Nutsedge", "test": "Pre-emergent herbicidal activity (Table A)", "conditions": "Cyperus, pre-emergence, Yens, 11.2 kg/ha, 10-14 days, read-out: herbicidal rating (% inhibition)", "outline": "as §1"}, "Hese": {"test_system": "Hese", "test": "plant injury after spraying emerged plants (Table D)", "set-up": "scale not given here", "outline": "(§2)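 Injury to emerged plants was assessed after spraying. Plants came from seeds or propagules sown into sterilized, sieved silt-loam topsoil under a 1.27 cm layer of 50% topsoil with peat moss, vermiculite and wetting agent, then kept on greenhouse capillary mats with subirrigation.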"}, "Vele": {"test_system": "Vele", "test": "plant injury after spraying emerged plants (Table D)", "set-up": "scale not given here", "outline": "as §2"}, "Annual Bluegrass": {"test_system": "Annual Bluegrass", "test": "Pre-emergent herbicidal activity (Table A)", "conditions": "pre-emergence, Anbg, 11.2 kg/ha, 10-14 days, read-out: herbicidal rating (% inhibition)", "outline": "(§3)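 Seeds were sown on compacted topsoil and covered with soil into which test compound (in acetone or water carrier) had been mixed at 11.2 kg/ha. Pans were kept watered on a greenhouse bench, and percent inhibition was scored as a rating about 10-14 days (usually 11) after treatment.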"}, "Indian Mustard": {"test_system": "Indian Mustard", "test": "Pre-emergent herbicidal activity (Table A)", "conditions": "Brassica juncea, pre-emergence, Inmu, 11.2 kg/ha, 10-14 days, read-out: herbicidal rating (% inhibition)", "outline": "as §3"}, "Seedling Johnsongrass": {"test_system": "Seedling Johnsongrass", "test": "Pre-emergent herbicidal activity (Table A)", "conditions": "Sorghum halepense, pre-emergence, Sejg, 11.2 kg/ha, 10-14 days, read-out: herbicidal rating (% inhibition)", "outline": "as §3"}, "Wild Buckwheat": {"test_system": "Wild Buckwheat", "test": "Pre-emergent herbicidal activity (Table A)", "conditions": "Fallopia convolvulus, pre-emergence, Wibw, 11.2 kg/ha, 10-14 days, read-out: herbicidal rating (% inhibition)", "outline": "as §3"}, "Cotz": {"test_system": "Cotz", "test": "plant injury after spraying emerged plants (Table D)", "set-up": "scale not given here", "source_text": "(§4) Topsoil (silt loam) is sieved through a screen having 1.27 cm openings. In some of the tests the soil was mixed with fertilizer (1225 g/cu. m of 12/5/9 containing isobutylidene diurea), while in other tests the fertilizer was omitted. This mixture is steam sterilized and then placed in aluminum pans 6.985 cm deep having ten holes in the bottom each 0.635 cm in diameter. The soil mixture is compacted to a depth of 1.27 cm. from the top of the pan. A predetermined number of seeds of each of several dicotyledonous and monocotyledonous annual plant species and/or vegetative propagules for the perennial plant species are placed on the soil and pressed into the soil surface. The seeds and/or vegetative propagules are covered with 1.27 cm of a mixture of 50% topsoil and 50% of a mixture of Canadian sphagnum peat moss, vermiculite and a wetting agent. The pans are then placed on a capillary mat on a greenhouse bench and subirrigated as needed. After the plants reach the desired stage (9 to 14 days, 1 to 3 true leaf stage), each pan (except the control pans) is removed to a spraying chamber and sprayed by means of an atomizer, operating at a spray pressure of 170.3 kPa ([…]) at the application rates noted in Table D. In the spray solution is an amount of an emulsifying agent mixture (35% butylamine salt of dodecylbenzenesulfonic acid and 65% tall oil condensed with ethylene oxide in the ratio of 11 mols of ethylene oxide/mol of tall oil) to give a spray solution or suspension. The spray solution or suspension contains a sufficient amount of the candidate chemical in order to give application rates of the active ingredient corresponding to those shown in Table D below while applying a total amount of solution or suspension equivalent to 1870 L/Ha (200 gallons/acre). The pans are returned to the greenhouse and watered as before and the injury to the plants as compared to the control pans is observed at approximately 10-14 days (usually 11 days).\n(§5) In the following Table D the legends used to identify the plant species are the same as those used in the preceding Table B."}, "Rape": {"test_system": "Rape", "test": "plant injury after spraying emerged plants (Table D)", "set-up": "scale not given here", "source_text": "as §4, §5"}}, "data": [{"compound": "COC(=O)c1c(OC)nc(C(F)(F)Cl)c(C(=O)OC)c1CC(C)C", "note": "[Compound 30, 3,5-pyridinedicarboxylic acid, 2-(chlorodifluoromethyl)-6-methoxy-4-(2-methylpropyl)-, dimethyl ester]", "values": [{"measurement": "inhibition at 11200 g/ha", "setting": "Velvetleaf", "value": "75 to 100", "unit": "%"}, {"measurement": "inhibition at 11200 g/ha", "setting": "Yellow Nutsedge", "value": "50 to 74", "unit": "%"}, {"measurement": "plant injury rating, Hese", "setting": "Hese; 0.5605 kg/ha", "value": 1}, {"measurement": "plant injury rating, Hese", "setting": "Hese; 1.1210 kg/ha", "value": 1}, {"measurement": "plant injury rating, Hese", "setting": "Hese; 2.8025 kg/ha", "value": 1}, {"measurement": "plant injury rating, Hese", "setting": "Hese; 5.6050 kg/ha", "value": 1}, {"measurement": "plant injury rating, Hese", "setting": "Hese; 8.4075 kg/ha", "value": 2}, {"measurement": "plant injury rating, Hese", "setting": "Hese; 11.2100 kg/ha", "value": 1}, {"measurement": "plant injury rating, Vele", "setting": "Vele; 0.5605 kg/ha", "value": 1}, {"measurement": "plant injury rating, Vele", "setting": "Vele; 1.1210 kg/ha", "value": 1}, {"measurement": "plant injury rating, Vele", "setting": "Vele; 2.8025 kg/ha", "value": 1}, {"measurement": "plant injury rating, Vele", "setting": "Vele; 5.6050 kg/ha", "value": 1}, {"measurement": "plant injury rating, Vele", "setting": "Vele; 8.4075 kg/ha", "value": 2}, {"measurement": "plant injury rating, Vele", "setting": "Vele; 11.2100 kg/ha", "value": 1}]}, {"compound": "COC(=O)c1c(OC)nc(C(F)(F)F)c(N=CSC)c1CC(C)C", "note": "[Compound 77, 3-pyridinecarboxylic acid, 2-methoxy-4-(2-methylpropyl)-5-[[(methylthio)methylene]amino]-6-(trifluoromethyl)-, methyl ester]", "values": [{"measurement": "inhibition at 11200 g/ha", "setting": "Velvetleaf", "value": "75 to 100", "unit": "%"}, {"measurement": "inhibition at 11200 g/ha", "setting": "Yellow Nutsedge", "value": "75 to 100", "unit": "%"}]}, {"compound": "COC(=O)c1c(OC)nc(C(F)(F)F)c(C(=O)Cl)c1CC1CC1", "note": "[Compound 113, 3-pyridinecarboxylic acid, 5-(chlorocarbonyl)-4-(cyclopropylmethyl)-2-methoxy-6-(trifluoromethyl)-, methyl ester]", "values": [{"measurement": "inhibition at 11200 g/ha", "setting": "Annual Bluegrass", "value": "75 to 100", "unit": "%"}, {"measurement": "inhibition at 11200 g/ha", "setting": "Indian Mustard", "value": "0 to 24", "unit": "%"}, {"measurement": "inhibition at 11200 g/ha", "setting": "Seedling Johnsongrass", "value": "75 to 100", "unit": "%"}, {"measurement": "inhibition at 11200 g/ha", "setting": "Wild Buckwheat", "value": "25 to 49", "unit": "%"}, {"measurement": "inhibition at 11200 g/ha", "setting": "Velvetleaf", "value": "25 to 49", "unit": "%"}, {"measurement": "inhibition at 11200 g/ha", "setting": "Yellow Nutsedge", "value": "0 to 24", "unit": "%"}, {"measurement": "plant injury rating, Hese", "setting": "Hese; 0.2803 kg/ha", "value": 0}, {"measurement": "plant injury rating, Hese", "setting": "Hese; 1.1210 kg/ha", "value": 0}, {"measurement": "plant injury rating, Hese", "setting": "Hese; 5.6050 kg/ha", "value": 1}, {"measurement": "plant injury rating, Vele", "setting": "Vele; 0.2803 kg/ha", "value": 0}, {"measurement": "plant injury rating, Vele", "setting": "Vele; 1.1210 kg/ha", "value": 0}, {"measurement": "plant injury rating, Vele", "setting": "Vele; 5.6050 kg/ha", "value": 1}, {"measurement": "plant injury rating, Cotz", "setting": "Cotz; 0.2803 kg/ha", "value": 0}, {"measurement": "plant injury rating, Cotz", "setting": "Cotz; 1.1210 kg/ha", "value": 0}, {"measurement": "plant injury rating, Cotz", "setting": "Cotz; 5.6050 kg/ha", "value": 0}, {"measurement": "plant injury rating, Rape", "setting": "Rape; 0.2803 kg/ha", "value": 0}, {"measurement": "plant injury rating, Rape", "setting": "Rape; 1.1210 kg/ha", "value": 0}, {"measurement": "plant injury rating, Rape", "setting": "Rape; 5.6050 kg/ha", "value": 1}]}, {"compound": "COC(=O)c1c(OC)nc(C(F)(F)F)c(C(=O)n2cccn2)c1CC1CC1", "note": "[Compound 116, 3-pyridinecarboxylic acid, 4-(cyclopropylmethyl)-2-methoxy-5-(1H-pyrazo1-1-ylcarbonyl)-6-(trifluoromethyl)-, methyl ester]", "values": [{"measurement": "inhibition at 11200 g/ha", "setting": "Annual Bluegrass", "value": "75 to 100", "unit": "%"}, {"measurement": "inhibition at 11200 g/ha", "setting": "Indian Mustard", "value": "75 to 100", "unit": "%"}, {"measurement": "inhibition at 11200 g/ha", "setting": "Seedling Johnsongrass", "value": "75 to 100", "unit": "%"}, {"measurement": "inhibition at 11200 g/ha", "setting": "Wild Buckwheat", "value": "75 to 100", "unit": "%"}, {"measurement": "inhibition at 11200 g/ha", "setting": "Velvetleaf", "value": "75 to 100", "unit": "%"}, {"measurement": "inhibition at 11200 g/ha", "setting": "Yellow Nutsedge", "value": "75 to 100", "unit": "%"}, {"measurement": "plant injury rating, Hese", "setting": "Hese; 0.0701 kg/ha", "value": 1}, {"measurement": "plant injury rating, Hese", "setting": "Hese; 0.2803 kg/ha", "value": 1}, {"measurement": "plant injury rating, Hese", "setting": "Hese; 1.1210 kg/ha", "value": 2}, {"measurement": "plant injury rating, Hese", "setting": "Hese; 5.6050 kg/ha", "value": 2}, {"measurement": "plant injury rating, Vele", "setting": "Vele; 0.0701 kg/ha", "value": 1}, {"measurement": "plant injury rating, Vele", "setting": "Vele; 0.2803 kg/ha", "value": 2}, {"measurement": "plant injury rating, Vele", "setting": "Vele; 1.1210 kg/ha", "value": 3}, {"measurement": "plant injury rating, Vele", "setting": "Vele; 5.6050 kg/ha", "value": 2}, {"measurement": "plant injury rating, Cotz", "setting": "Cotz; 0.0701 kg/ha", "value": 0}, {"measurement": "plant injury rating, Cotz", "setting": "Cotz; 0.2803 kg/ha", "value": 0}, {"measurement": "plant injury rating, Cotz", "setting": "Cotz; 1.1210 kg/ha", "value": 1}, {"measurement": "plant injury rating, Cotz", "setting": "Cotz; 5.6050 kg/ha", "value": 1}, {"measurement": "plant injury rating, Rape", "setting": "Rape; 0.0701 kg/ha", "value": 1}, {"measurement": "plant injury rating, Rape", "setting": "Rape; 0.2803 kg/ha", "value": 2}, {"measurement": "plant injury rating, Rape", "setting": "Rape; 1.1210 kg/ha", "value": 3}, {"measurement": "plant injury rating, Rape", "setting": "Rape; 5.6050 kg/ha", "value": 3}]}, {"compound": "COC(=O)c1c(OC)nc(C(F)(F)F)c(C(=O)SC)c1C1CCC1", "note": "[Compound 137, 3-pyridinecarboxylic acid, 4-cyclobuty1-2-methoxy-5-[(methylthio)carbonyl]-6-(trifluoromethyl)-, methyl ester]", "values": [{"measurement": "inhibition at 11200 g/ha", "setting": "Annual Bluegrass", "value": "75 to 100", "unit": "%"}, {"measurement": "inhibition at 11200 g/ha", "setting": "Indian Mustard", "value": "75 to 100", "unit": "%"}, {"measurement": "inhibition at 11200 g/ha", "setting": "Seedling Johnsongrass", "value": "75 to 100", "unit": "%"}, {"measurement": "inhibition at 11200 g/ha", "setting": "Wild Buckwheat", "value": "75 to 100", "unit": "%"}, {"measurement": "inhibition at 11200 g/ha", "setting": "Velvetleaf", "value": "75 to 100", "unit": "%"}, {"measurement": "inhibition at 11200 g/ha", "setting": "Yellow Nutsedge", "value": "75 to 100", "unit": "%"}, {"measurement": "plant injury rating, Hese", "setting": "Hese; 0.2803 kg/ha", "value": 1}, {"measurement": "plant injury rating, Hese", "setting": "Hese; 1.1210 kg/ha", "value": 3}, {"measurement": "plant injury rating, Hese", "setting": "Hese; 5.6050 kg/ha", "value": 3}, {"measurement": "plant injury rating, Vele", "setting": "Vele; 0.2803 kg/ha", "value": 3}, {"measurement": "plant injury rating, Vele", "setting": "Vele; 1.1210 kg/ha", "value": 3}, {"measurement": "plant injury rating, Vele", "setting": "Vele; 5.6050 kg/ha", "value": 2}, {"measurement": "plant injury rating, Cotz", "setting": "Cotz; 0.2803 kg/ha", "value": 1}, {"measurement": "plant injury rating, Cotz", "setting": "Cotz; 1.1210 kg/ha", "value": 2}, {"measurement": "plant injury rating, Cotz", "setting": "Cotz; 5.6050 kg/ha", "value": 2}, {"measurement": "plant injury rating, Rape", "setting": "Rape; 0.2803 kg/ha", "value": 3}, {"measurement": "plant injury rating, Rape", "setting": "Rape; 1.1210 kg/ha", "value": 3}, {"measurement": "plant injury rating, Rape", "setting": "Rape; 5.6050 kg/ha", "value": 3}]}]}
